Test results taken from patent US20260034138A1, “NOVEL PYRIMIDINYL AND TRIAZINYL SULFONAMIDE DERIVATIVES” (Hoffmann-La Roche Inc., priority 2022, published 2026).

Target: human GPR17 short isoform (Homo sapiens, UniProt Q13304)
Sequence (Q13304 29-367): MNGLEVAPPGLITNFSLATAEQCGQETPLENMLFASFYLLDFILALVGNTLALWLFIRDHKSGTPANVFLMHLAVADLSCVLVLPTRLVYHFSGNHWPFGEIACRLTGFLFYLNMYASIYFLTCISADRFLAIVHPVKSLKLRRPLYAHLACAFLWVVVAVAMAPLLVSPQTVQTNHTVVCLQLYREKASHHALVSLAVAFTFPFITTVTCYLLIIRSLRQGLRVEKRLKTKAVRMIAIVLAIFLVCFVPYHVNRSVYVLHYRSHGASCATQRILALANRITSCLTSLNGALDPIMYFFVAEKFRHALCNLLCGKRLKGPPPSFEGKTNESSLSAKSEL
Experiment: GPR17 cAMP assay (hGPR17 cAMP)
Format: cell-based
Conditions: CHO-K1 cells stably expressing human GPR17 short isoform; antagonist mode vs EC80 of MDL29,951; forskolin 15 μM; TR-FRET cAMP
Protocol: GPR17 cAMP Assay Protocol:
CHO-K1 cells stably expressing vector containing untagged human GPR17 short isoform (Roche) were cultured at 37° C./5% CO2 in DMEM (Dulbecco's Modified Eagle Medium): F-12 (1:1) supplemented with 10% foetal bovine serum and 400 μg/ml Geneticin.
Changes in intracellular cyclic adenosine monophosphate (cAMP) levels were quantified using the Nano-TRF Detection Assay kit (Roche Diagnostics, Cat. No. 05214386001). This assay allows for direct cAMP quantification in a homogeneous solution. cAMP is detected based on time-resolved fluorescence energy transfer (TR-FRET) and competitive binding of ruthenylated cAMP and endogenous cAMP to an anti-cAMP monoclonal antibody labeled with AlexaFluor-700. The Ruthenium complex serves as the FRET donor and transfers energy to AlexaFluor-700. The FRET signal is inversely proportional to the CAMP concentration.
CHO-GPR17S cells were detached with Accutase and resuspended in assay buffer consisting of Hank's Balanced Salt Solution (HBSS), 10 mM HEPES (4-(2-hydroxyethyl) piperazine-1-ethanesulfonic acid solution) and 0.1% bovine serum albumin (pH 7.4). The cells were seeded in black 384-well plates (Corning) at a density of 10'000 cells/20 μl assay buffer until the addition of compounds.
Test antagonist compounds were serially diluted in dimethyl sulfoxide (DMSO) and spotted in 384-well plates. The compounds were then diluted in HBSS buffer supplemented with an EC80 concentration of MDL29,951 (3-(2-Carboxy-4,6-dichloroindol-3-yl) propionic acid) (GPR17 agonist) plus 3-Isobutyl-1-methylxanthine (IBMX) (0.5 mM final concentration) and added to the cells at room temperature. Forskolin (15 μM final concentration) was added 5 minutes after the test compounds and the cells were incubated at room temperature for 30 minutes. The assay was stopped by adding cAMP detection mix (containing detergents for cell lysis) for 90 minutes at room temperature.
Cellular cAMP was measured using a Paradigm reader (Molecular Devices). The raw data was used to calculate the FRET signal based on the assay's P-factor as per cAMP kit instructions. The data was normalized to the maximal activity of a reference antagonist and dose response curves were fitted to the percent activity of the test compounds using a sigmoidal dose response model (Genedata Screener).
Results in the hGPR17 cAMP assay are provided for compounds of formula I in Table 1
With `CCCc1ncc(NS(=O)(=O)c2c[nH]c3cc(Cl)ccc23)c(OC)n1` [Example 1, 6-chloro-N-(4-methoxy-2-propyl-pyrimidin-5-yl)-1H-indole-3-sulfonamide] the IC50 was 772 nM.
In the case of `COc1nc(OCC(F)F)ncc1NS(=O)(=O)c1c[nH]c2cc(C(F)(F)F)ccc12` [Example 11, N-[2-(2,2-difluoroethoxy)-4-methoxy-pyrimidin-5-yl]-6-(trifluoromethyl)-1H-indole-3-sulfonamide], the IC50 is reported as 347 nM.
With `O=S(=O)(Nc1cnc(OCC(F)F)nc1OC(F)F)c1c[nH]c2cc(Cl)ccc12` [Example 5, 6-chloro-N-[2-(2,2-difluoroethoxy)-4-(difluoromethoxy)pyrimidin-5-yl]-1H-indole-3-sulfonamide] the IC50 was 174 nM.
Compound `CCc1ncc(NS(=O)(=O)c2c[nH]c3cc(Cl)ccc23)c(OC)n1` [Example 2, 6-chloro-N-(2-ethyl-4-methoxy-pyrimidin-5-yl)-1H-indole-3-sulfonamide] has an IC50 of 637 nM.
In the case of `O=S(=O)(Nc1cnc(Cl)nc1Cl)c1c[nH]c2cc(Cl)ccc12` [Example 6, 6-chloro-N-(2,4-dichloropyrimidin-5-yl)-1H-indole-3-sulfonamide], the IC50 is reported as 1190 nM.
`COc1nc(NS(=O)(=O)c2c[nH]c3cc(Cl)ccc23)nnc1CC(F)F` [Example 12, 6-chloro-N-[6-(2,2-difluoroethyl)-5-methoxy-1,2,4-triazin-3-yl]-1H-indole-3-sulfonamide] showed an IC50 of 908 nM.
With `COc1nc(OCC(F)F)ncc1NS(=O)(=O)c1c[nH]c2nc(Br)ccc12` [Example 10, 6-bromo-N-[2-(2,2-difluoroethoxy)-4-methoxy-pyrimidin-5-yl]-1H-pyrrolo[2,3-b]pyridine-3-sulfonamide] the IC50 was 167 nM.
`COc1nc(OCC(F)F)ncc1NS(=O)(=O)c1c[nH]c2cc(Br)ccc12` [Example 9, 6-bromo-N-[2-(2,2-difluoroethoxy)-4-methoxy-pyrimidin-5-yl]-1H-indole-3-sulfonamide] showed an IC50 of 53 nM.
Work on `COc1nc(OCCF)ncc1NS(=O)(=O)c1c[nH]c2cc(Cl)ccc12` [Example 7, 6-chloro-N-(2-(2-fluoroethoxy)-4-methoxypyrimidin-5-yl)-1H-indole-3-sulfonamide] yielded an IC50 of 727 nM.
Compound `COc1nc(OC(F)F)ncc1NS(=O)(=O)c1c[nH]c2cc(Cl)ccc12` [Example 3, 6-chloro-N-[2-(difluoromethoxy)-4-methoxy-pyrimidin-5-yl]-1H-indole-3-sulfonamide] has an IC50 of 159 nM.
In the case of `COc1nc(OCC(F)F)ncc1NS(=O)(=O)c1c[nH]c2nc(Cl)ccc12` [Example 4, 6-chloro-N-[2-(2,2-difluoroethoxy)-4-methoxy-pyrimidin-5-yl]-1H-pyrrolo[2,3-b]pyridine-3-sulfonamide], the IC50 is reported as 460 nM.
Work on `COc1nc(OCC(F)F)ncc1NS(=O)(=O)c1c[nH]c2cc(Cl)ccc12` [Example 8, 6-chloro-N-(2-(2,2-difluoroethoxy)-4-methoxypyrimidin-5-yl)-1H-indole-3-sulfonamide] yielded an IC50 of 121 nM.
In the case of `COc1nc(NS(=O)(=O)c2c[nH]c3cc(Cl)ccc23)nnc1C` [Example 13, 6-chloro-N-(5-methoxy-6-methyl-1,2,4-triazin-3-yl)-1H-indole-3-sulfonamide], the IC50 is reported as 5220 nM.

Test system: not listed separately
Experiment: Microsome Clearance Assay
Format: in vitro ADME
Conditions: human microsomes 0.5 mg/mL plus NADPH, 37° C., test compound 1 microM final
Protocol: Microsome Clearance Assay Protocol:
Incubations at a test compound of 1 mM in microsomes (0.5 mg/mL) plus cofactor NADPH are performed in 96 well plates at 37° C. on a TECAN (Tecan Group Ltd, Switzerland) automated liquid handling system. The final concentration of the test compound in the incubation is 1 microM. After a 10 minutes preincubation step of the test compound with the microsomes, the enzymatic reaction is started by the addition of cofactors. At 1, 3, 6, 9, 15, 25, 35 and 45 minutes, aliquots of the incubations are removed and quenched with 1:3 (v/v) acetonitrile containing internal standards. Samples are then cooled and centrifuged before analysis of the supernatant by LC-MS/MS.
Reference compounds were tested against exemplified compounds for their Microsome Clearance to evaluate metabolite stability.
For `COc1nc(NS(=O)(=O)c2c[nH]c3cc(Cl)ccc23)nnc1CC(F)F` [Example 12, 6-chloro-N-[6-(2,2-difluoroethyl)-5-methoxy-1,2,4-triazin-3-yl]-1H-indole-3-sulfonamide], the microsomal CLint at 1 microM was 10 µL/min/mg.
`COc1nc(OCC(F)F)ncc1NS(=O)(=O)c1c[nH]c2nc(Cl)ccc12` [Example 4, 6-chloro-N-[2-(2,2-difluoroethoxy)-4-methoxy-pyrimidin-5-yl]-1H-pyrrolo[2,3-b]pyridine-3-sulfonamide] showed a microsomal CLint at 1 microM of 10 µL/min/mg.
Compound `COc1nc(OCC(F)F)c(F)cc1NS(=O)(=O)c1c[nH]c2nc(Cl)ccc12` [RE-A, 6-chloro-N-[6-(2,2-difluoroethoxy)-5-fluoro-2-methoxy-3-pyridyl]-1H-pyrrolo[2,3-b]pyridine-3-sulfonamide, reference compound] has a microsomal CLint at 1 microM of 41 µL/min/mg.
